Results: patent US20220089600A1, “TGFß INHIBITOR AND PRODRUGS” (FUNDACIÓ INSTITUT DE RECERCA BIOMÈDICA (IRB BARCELONA), priority 2018, published 2022)

Experiments:
[1] = system: MTO129 established liver metastases; assay: Overt metastatic disease model, alone or with anti-PD-1; details: monotherapy
Excerpt: For this purpose, the protocol of mouse inoculation with MTO129 described for FIG. 13 was used, but here treatment with compounds started at day 16 post-inoculation. At this time point mice had developed large metastases. Treatments finished at day 24. […] In these experiments, the vast majority (>90%) of control mice die of liver metastatic disease.
Mouse tumor organoids (MTO129) were developed as indicated in example 3. C57BL/6J mice were purchased from Janvier at 6 weeks of age and injected at 7-8 weeks. For transplantation of MTO129 into the liver, cells were trypsinized (digesting the matrix and disaggregating organoids into single cells), counted and 300,000 cells were injected in HBSS (Hank's Balanced Salt Solution, Lonza) into the spleen, thus delivering the cells directly into the portal vein that connects the intestine to the liver. […] Treatment with compounds occurred by gavage (tube feeding) and mice were treated twice a day with 150 μl of compound suspension in vehicle. […] Control mice were given gavage vehicle and IgG2a isotype control antibody.
At this time point, mice had developed large liver metastases. Treatments finished at day 24. […] In these experiments, the vast majority (>90%) of control mice die of liver metastatic disease.

[2] = biological target: T1, human ALK5 (Homo sapiens, UniProt P36897); assay: KinaseProfiler enzymatic activity inhibition; type: biochemical
T1 construct: purchased Eurofins (Kinase Profiler service)
T1 sequence (P36897 34-503): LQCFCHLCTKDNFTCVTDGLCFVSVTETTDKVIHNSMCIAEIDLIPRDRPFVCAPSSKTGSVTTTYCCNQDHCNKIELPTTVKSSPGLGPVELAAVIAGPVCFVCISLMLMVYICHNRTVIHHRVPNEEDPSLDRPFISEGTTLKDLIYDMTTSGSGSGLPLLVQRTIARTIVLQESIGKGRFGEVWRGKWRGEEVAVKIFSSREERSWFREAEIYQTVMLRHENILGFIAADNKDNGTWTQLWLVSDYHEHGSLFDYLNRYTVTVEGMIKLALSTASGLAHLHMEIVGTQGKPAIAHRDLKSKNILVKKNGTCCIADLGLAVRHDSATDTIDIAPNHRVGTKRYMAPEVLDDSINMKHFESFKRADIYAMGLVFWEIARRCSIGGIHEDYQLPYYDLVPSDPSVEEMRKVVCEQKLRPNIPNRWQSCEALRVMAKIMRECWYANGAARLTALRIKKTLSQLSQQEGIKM
Experimental: Briefly, human ALK5 was incubated with 8 mM MOPS pH 7.0, 0.2 mM EDTA, 1 mM MnCl2, 2 mg/mL casein, 10 mM MgAcetate and [γ-33P-ATP] (specific activity approx. 500 cpm/pmol, concentration as required). The reaction was initiated by the addition of the MgATP mix. After incubation for 40 minutes at room temperature, the reaction was stopped by the addition of a 3% phosphoric acid solution. 10 μL of the reaction was then spotted onto a P30 filtermat and washed three times for 5 minutes in 75 mM phosphoric acid and once in methanol prior to drying and scintillation counting.
Compounds were tested using a 9-point curve with half-Log serial dilutions. The top concentration tested was 10 μM. Test compounds were prepared in 100% DMSO.

[3] = system: HEK293T cells; assay: In vitro cytotoxicity, XTT assay; type: cell-based; details: 24h
Experimental: To assess the toxicity of the compound of formula I in vitro, HEK293T cells were seeded in 96-well plates and treated for 24h with indicated compounds. DMSO was used as a control.
Cell viability was assessed by the XTT assay (Biological Industries), according to the manufacturer's instructions, incubating for 4h prior to measurement.

[4] = In vivo toxicity, histopathology; set-up: species or system mouse; details: for Sternum side effect, mice affected per mice tested / Long bones side effect, mice affected per mice tested: two weeks
Excerpt: Number of cured mice, i.e. mice with no metastases at experimental end points, were score. Intestines, skin samples, hearts, thoracic skeletons and limbs of these mice were fixed in 10% formalin, phosphate buffered (Sigma). Soft tissues were embedded in paraffin blocks, sectioned and stained with haematoxylin & eosin. Bones were first decalcified for 2 weeks before embedding, sectioning and staining. An experienced pathologist analyzed tissues for histopathological abnormalities. […] Furthermore, the cartilage ossification zone at the ends of the long bones was analysed for defects in the hypertrophic zone.

[5] = biological target: T2, ALK5 (TGFBR1) (Homo sapiens, UniProt P36897); assay: KINOMEscan affinity, competition binding
T2 sequence (P36897 34-503): T1 sequence (P36897 34-503)
Experimental: (§1) The affinity, measured as Kd (dissociation constants), of the compound of formula I for the ALK family was determined by using the KINOMEscan™ Technology from Eurofins. Selectivity in front of ALK1 (ACVRL1), ALK2 (ACVR1), ALK3 (BMPR1A), ALK4 (ACVR1B), ALK6 (BMPR1B), ACVR2B and TGFβR2 was determined.
(§2) The assay is performed by combining three components: DNA-tagged kinase; immobilized ligand; and a test compound. The ability of the test compound to compete with the immobilized ligand is measured via quantitative PCR of the DNA tag.
(§3) Test compounds were prepared as 111× stocks in 100% DMSO. Kds were determined using an 11-point 3-fold compound dilution series with three DMSO control points being the top concentration 30 μM. […] The compounds were then diluted directly into the assays such that the final concentration of DMSO was 0.9%. All reactions performed in polypropylene 384-well plate. Each was a final volume of 0.02 ml. […] The beads were then re-suspended in elution buffer (1×PBS, 0.05% Tween 20, 0.5 μM non-biotinylated affinity ligand) and incubated at room temperature with shaking for 30 minutes. The kinase concentration in the eluates was measured by qPCR.
(§4) Dissociation constants (Kds) for test compound-kinase interactions are calculated by measuring the amount of kinase captured on the solid support as a function of the test compound concentration.

[6] = biological target: T3, ALK4 (ACVR1B) (Homo sapiens, UniProt P36896); assay: KINOMEscan affinity, competition binding
T3 construct: purchased Eurofins (KINOMEscan service)
T3 sequence (P36896 24-505): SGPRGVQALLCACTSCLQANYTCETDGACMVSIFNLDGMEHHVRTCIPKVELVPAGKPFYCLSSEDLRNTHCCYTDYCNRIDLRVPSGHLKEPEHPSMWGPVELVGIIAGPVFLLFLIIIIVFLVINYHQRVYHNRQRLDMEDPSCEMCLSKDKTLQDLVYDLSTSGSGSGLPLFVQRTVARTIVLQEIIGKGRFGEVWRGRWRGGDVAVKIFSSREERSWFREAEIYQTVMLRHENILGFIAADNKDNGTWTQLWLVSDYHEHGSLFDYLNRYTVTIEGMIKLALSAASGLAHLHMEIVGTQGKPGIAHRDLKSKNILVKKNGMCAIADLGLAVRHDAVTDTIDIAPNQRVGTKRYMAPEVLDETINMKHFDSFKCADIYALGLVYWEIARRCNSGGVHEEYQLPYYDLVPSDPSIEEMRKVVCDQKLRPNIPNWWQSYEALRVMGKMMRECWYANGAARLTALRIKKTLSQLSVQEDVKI
Experimental: as §1, §2, §3, §4

[7] = biological target: T4, ALK3 (BMPR1A) (Homo sapiens, UniProt P36894); assay: KINOMEscan affinity, competition binding
T4 construct: purchased Eurofins (KINOMEscan service)
T4 sequence (P36894 24-532): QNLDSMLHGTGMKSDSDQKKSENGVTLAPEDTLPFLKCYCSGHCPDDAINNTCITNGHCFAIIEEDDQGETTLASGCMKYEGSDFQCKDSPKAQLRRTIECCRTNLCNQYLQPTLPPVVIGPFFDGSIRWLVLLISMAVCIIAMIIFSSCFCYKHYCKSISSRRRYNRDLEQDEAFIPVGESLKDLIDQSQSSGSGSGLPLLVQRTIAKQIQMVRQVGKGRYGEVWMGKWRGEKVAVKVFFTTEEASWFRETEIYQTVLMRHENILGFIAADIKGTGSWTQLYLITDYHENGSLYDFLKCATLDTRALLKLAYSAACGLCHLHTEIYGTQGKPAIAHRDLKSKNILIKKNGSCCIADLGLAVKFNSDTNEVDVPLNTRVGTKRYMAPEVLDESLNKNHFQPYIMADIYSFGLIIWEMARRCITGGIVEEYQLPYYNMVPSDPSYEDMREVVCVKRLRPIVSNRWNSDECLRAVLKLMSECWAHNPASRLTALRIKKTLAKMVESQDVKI
Experimental: as §1
The KINOMEscan screening platform employs an active-site directed competition binding assay to quantitatively measure interactions between test compounds and kinases.
as §2, §3
Compounds that bind the kinase active site and directly (sterically) or indirectly (allosterically) prevent kinase binding to the immobilized ligand, will reduce the amount of kinase captured on the solid support. […] Dissociation constants (Kds) for test compound-kinase interactions are calculated by measuring the amount of kinase captured on the solid support as a function of the test compound concentration.

With `Cc1cccc(-c2nn3c(c2-c2ccnc4ccc(O)cc24)CCC3)n1` [compound of formula I, 4-(2-(6-methylpyridin-2-yl)-5,6-dihydro-4H-pyrrolo[1,2-b]pyrazol-3-yl)quinolin-6-ol] the “efficacy at reducing the number of liver metastasis compared to galunisertib” value ([1]; FIG. 14, 1× equimolar doses) was “improved efficacy”, the “survival rates compared to galunisertib” value ([1]; FIG. 15, 1× equimolar doses) was “higher survival rates” and the IC50 ([2]; KinaseProfiler, 9-point curve, top 10 μM, read-out: Enzyme activity inhibition IC50 (nM) ALK5 (TGFBR1)) was 177 nM. The “ALK5 enzymatic potency, times more potent than prodrug of formula (III)” value ([2]; from Table 2) was 4.7 times, the “ALK5 enzymatic potency, times more potent than prodrug of formula (IV)” value ([2]; from Table 2) was 12.9 times and the “ALK5 enzymatic potency, times more potent than reference compound 337” value ([2]; from Table 2) was 1.8 times. The “ALK5 enzymatic potency, times more potent than reference compound 338” value ([2]; from Table 2) was 2.1 times, the Cell viability ([3]; 30 μM) was 93% and the Cell viability ([3]; 100 μM) was 64%. The “Combined side effects per number tested” value ([4]; 0.3x dose) was 0/5, the “Toxicity (%)” value ([4]; 0.3x dose) was 0% and the “Sternum side effect, mice affected per mice tested” value ([4]; 0.3x dose) was 0/5. The “Combined side effects per number tested” value ([4]; 1x dose) was 0/5, the “Toxicity (%)” value ([4]; 1x dose) was 0% and the “Sternum side effect, mice affected per mice tested” value ([4]; 1x dose) was 0/5. For the same compound, the “pathological analysis of the skin and intestine” value ([4]; 1× doses) was “No pathological anomalies”, the “Combined side effects per number tested” value ([4]; 3x dose) was 2/10 and the “Toxicity (%)” value ([4]; 3x dose) was 20%. For the same compound, the “Long bones side effect, mice affected per mice tested” value ([4]; 3x dose) was 1/5, the “Sternum side effect, mice affected per mice tested” value ([4]; 3x dose) was 1/5 and the “Combined side effects per number tested” value ([4]; 9x dose) was 4/8. The “Toxicity (%)” value ([4]; 9x dose) was 50%, the “Long bones side effect, mice affected per mice tested” value ([4]; 9x dose) was 3/4 and the “Sternum side effect, mice affected per mice tested” value ([4]; 9x dose) was 1/4. The “toxic dose (toxicity >50%)” value ([4]; 9× dose equivalent) was 1272 mg/kg/day, the “therapeutic index (toxic dose/effective dose)” value ([4]; dose equivalents) was 30 and the “Selectivity against ALK5” value ([5]; ALK5 versus ALK5) was 1. For the same compound, the Kd ([5]; KINOMEscan) was 0.02 µM, the “ALK5 binding affinity, times higher than Galunisertib” value ([5]; versus published galunisertib data) was 8.6 times and the Selectivity improvement ([6]; (I) versus Galunisertib) was 1.4. For the same compound, the “Selectivity against ALK5” value ([6]; ALK4 versus ALK5) was 0.7, the Selectivity improvement ([7]; (I) versus Galunisertib) was 3.5 and the “Selectivity against ALK5” value ([7]; ALK3 versus ALK5) was 345. For the same compound, the “selectivity for ALK5 against ALK3” value ([7]; KINOMEscan) was “greater than 300 fold”.
